Laboratory results published in PubChem BioAssay AID2060512 (Molecular Pharmacology Branch, DTP, NCI, 2025).

System: 186277-243-T-J2-PDC complex spheroid viability
Assay: Anticancer human tumor 186277-243-T-J2-PDC patient-derived colon adenocarcinoma cell line growth inhibition [GQUAD]
Conditions: for IC50: curve of first compound; for viability, T/C: stronger effect = lower value
In short: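 Viability of tumor cells grown as complex spheroids with endothelial and stromal cells, exposed to drug combinations. Top concentration at or near clinical Cmax (else 10 microM), diluted in half-log increments.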

[1] = second compound 0.0316 µM, first compound 0.0316 µM
[2] = second compound 0.0316 µM, first compound 0.1 µM
[3] = second compound 0.0316 µM, first compound 0.316 µM
[4] = second compound 0.0316 µM, first compound 1 µM
[5] = second compound 0.0316 µM, first compound 3.16 µM
[6] = second compound 0.0316 µM, first compound 10 µM
[7] = second compound 0.1 µM, first compound 0.0316 µM
[8] = second compound 0.1 µM, first compound 0.1 µM
[9] = second compound 0.1 µM, first compound 0.316 µM
[10] = second compound 0.1 µM, first compound 1 µM
[11] = second compound 0.1 µM, first compound 3.16 µM
[12] = second compound 0.1 µM, first compound 10 µM
[13] = second compound 0.316 µM, first compound 0.0316 µM
[14] = second compound 0.316 µM, first compound 0.1 µM
[15] = second compound 0.316 µM, first compound 0.316 µM
[16] = second compound 0.316 µM, first compound 1 µM
[17] = second compound 0.316 µM, first compound 3.16 µM
[18] = second compound 0.316 µM, first compound 10 µM
[19] = second compound 1 µM, first compound 0.0316 µM
[20] = second compound 1 µM, first compound 0.1 µM
[21] = second compound 1 µM, first compound 0.316 µM
[22] = second compound 1 µM, first compound 1 µM
[23] = second compound 1 µM, first compound 3.16 µM
[24] = second compound 1 µM, first compound 10 µM
[25] = second compound 3.16 µM, first compound 0.0316 µM
[26] = second compound 3.16 µM, first compound 0.1 µM
[27] = second compound 3.16 µM, first compound 0.316 µM
[28] = second compound 3.16 µM, first compound 1 µM
[29] = second compound 3.16 µM, first compound 3.16 µM
[30] = second compound 3.16 µM, first compound 10 µM
[31] = second compound 10 µM, first compound 0.0316 µM
[32] = second compound 10 µM, first compound 0.1 µM
[33] = second compound 10 µM, first compound 0.316 µM
[34] = second compound 10 µM, first compound 1 µM
[35] = second compound 10 µM, first compound 3.16 µM
[36] = second compound 10 µM, first compound 10 µM
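Wherever viability, T/C is given: 100% = DMSO vehicle control viability.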

C=CCn1c(=O)c2cnc(Nc3ccc(N4CCN(C)CC4)cc3)nc2n1-c1cccc(C(C)(C)O)n1 + Cc1cnc(CNC(=O)c2c(=O)c3ccc(N4CCCN(C)CC4)nc3n3c2sc2ccccc23)cn1
IC50 (second compound 0.0316 µM): 117 nM
IC50 (second compound 0.1 µM): < 31.6 nM
IC50 (second compound 0.316 µM): 35.1 nM
IC50 (second compound 1 µM): < 31.6 nM
IC50 (second compound 3.16 µM): < 31.6 nM
IC50 (second compound 10 µM): < 31.6 nM
viability, T/C [1]: 93.8%
viability, T/C [2]: 54.3%
viability, T/C [3]: 22%
viability, T/C [4]: 10.2%
viability, T/C [5]: 12.2%
viability, T/C [6]: 15.5%
viability, T/C [7]: 49.1%
viability, T/C [8]: 44.2%
viability, T/C [9]: 25.8%
viability, T/C [10]: 14.7%
viability, T/C [11]: 13.8%
viability, T/C [12]: 20.5%
viability, T/C [13]: 51.8%
viability, T/C [14]: 46.4%
viability, T/C [15]: 33.5%
viability, T/C [16]: 17.6%
viability, T/C [17]: 17.8%
viability, T/C [18]: 24.1%
viability, T/C [19]: 27.7%
viability, T/C [20]: 35.9%
viability, T/C [21]: 30.5%
viability, T/C [22]: 24.4%
viability, T/C [23]: 23.5%
viability, T/C [24]: 26.4%
viability, T/C [25]: 34.5%
viability, T/C [26]: 31.7%
viability, T/C [27]: 34.5%
viability, T/C [28]: 21.9%
viability, T/C [29]: 23.4%
viability, T/C [30]: 22.6%
viability, T/C [31]: 31.8%
viability, T/C [32]: 31.6%
viability, T/C [33]: 31.5%
viability, T/C [34]: 22.9%
viability, T/C [35]: 22.8%
viability, T/C [36]: 24.4%

CC(C)(O)C1CCC(Nc2ccc3ncc(-c4cccc(C(F)(F)F)c4)n3n2)CC1 (stereo not drawn) + Cc1cnc(CNC(=O)c2c(=O)c3ccc(N4CCCN(C)CC4)nc3n3c2sc2ccccc23)cn1
IC50 (second compound 0.0316 µM): 2430 nM
IC50 (second compound 0.1 µM): 1670 nM
IC50 (second compound 0.316 µM): 1190 nM
IC50 (second compound 1 µM): < 31.6 nM
IC50 (second compound 3.16 µM): < 31.6 nM
IC50 (second compound 10 µM): < 31.6 nM
viability, T/C [1]: 88.7%
viability, T/C [2]: 85.8%
viability, T/C [3]: 94.4%
viability, T/C [4]: 75.5%
viability, T/C [5]: 43%
viability, T/C [6]: 37.2%
viability, T/C [7]: 81.3%
viability, T/C [8]: 78.1%
viability, T/C [9]: 77%
viability, T/C [10]: 59.6%
viability, T/C [11]: 37.9%
viability, T/C [12]: 34.3%
viability, T/C [13]: 55.5%
viability, T/C [14]: 49.5%
viability, T/C [15]: 66.8%
viability, T/C [16]: 54.2%
viability, T/C [17]: 25.2%
viability, T/C [18]: 20.9%
viability, T/C [19]: 48.5%
viability, T/C [20]: 48.2%
viability, T/C [21]: 46.3%
viability, T/C [22]: 43.2%
viability, T/C [23]: 24.2%
viability, T/C [24]: 22.1%
viability, T/C [25]: 34.5%
viability, T/C [26]: 42.2%
viability, T/C [27]: 38.7%
viability, T/C [28]: 35.3%
viability, T/C [29]: 3.82%
viability, T/C [30]: 0.12%
viability, T/C [31]: 37.5%
viability, T/C [32]: 43.4%
viability, T/C [33]: 37.1%
viability, T/C [34]: 39.7%
viability, T/C [35]: 0.2%
viability, T/C [36]: 0.2%

Cc1[nH]c2ccccc2c1CCNCc1ccc(/C=C/C(=O)NO)cc1 + Cc1cnc(CNC(=O)c2c(=O)c3ccc(N4CCCN(C)CC4)nc3n3c2sc2ccccc23)cn1
IC50 (second compound 0.0316 µM): 30.9 nM
IC50 (second compound 0.1 µM): 17.9 nM
IC50 (second compound 0.316 µM): 10.2 nM
IC50 (second compound 1 µM): < 0.999 nM
IC50 (second compound 3.16 µM): < 0.999 nM
IC50 (second compound 10 µM): < 0.999 nM
viability, T/C (second compound 0.0316 µM, first compound 0.000999 µM): 108%
viability, T/C (second compound 0.0316 µM, first compound 0.00316 µM): 101%
viability, T/C (second compound 0.0316 µM, first compound 0.00999 µM): 110%
viability, T/C [1]: 48.9%
viability, T/C (second compound 0.0316 µM, first compound 0.0999 µM): 13.6%
viability, T/C [3]: 1.14%
viability, T/C (second compound 0.1 µM, first compound 0.000999 µM): 77.5%
viability, T/C (second compound 0.1 µM, first compound 0.00316 µM): 79.7%
viability, T/C (second compound 0.1 µM, first compound 0.00999 µM): 61.4%
viability, T/C [7]: 36.7%
viability, T/C (second compound 0.1 µM, first compound 0.0999 µM): 15.4%
viability, T/C [9]: 0.78%
viability, T/C (second compound 0.316 µM, first compound 0.000999 µM): 58.4%
viability, T/C (second compound 0.316 µM, first compound 0.00316 µM): 52.8%
viability, T/C (second compound 0.316 µM, first compound 0.00999 µM): 49.2%
viability, T/C [13]: 34.9%
viability, T/C (second compound 0.316 µM, first compound 0.0999 µM): 9.31%
viability, T/C [15]: 1.35%
viability, T/C (second compound 1 µM, first compound 0.000999 µM): 40.5%
viability, T/C (second compound 1 µM, first compound 0.00316 µM): 40.9%
viability, T/C (second compound 1 µM, first compound 0.00999 µM): 38.4%
viability, T/C [19]: 20%
viability, T/C (second compound 1 µM, first compound 0.0999 µM): 4.65%
viability, T/C [21]: 0.08%
viability, T/C (second compound 3.16 µM, first compound 0.000999 µM): 35%
viability, T/C (second compound 3.16 µM, first compound 0.00316 µM): 38.6%
viability, T/C (second compound 3.16 µM, first compound 0.00999 µM): 28.3%
viability, T/C [25]: 21.6%
viability, T/C (second compound 3.16 µM, first compound 0.0999 µM): 0.18%
viability, T/C [27]: 0.11%
viability, T/C (second compound 10 µM, first compound 0.000999 µM): 34.7%
viability, T/C (second compound 10 µM, first compound 0.00316 µM): 36.3%
viability, T/C (second compound 10 µM, first compound 0.00999 µM): 28.8%
viability, T/C [31]: 18.9%
viability, T/C (second compound 10 µM, first compound 0.0999 µM): 0.27%
viability, T/C [33]: 0.24%

O=C(NO)c1cnc(N2CCN(S(=O)(=O)c3ccc4ccccc4c3)CC2)nc1 + Cc1cnc(CNC(=O)c2c(=O)c3ccc(N4CCCN(C)CC4)nc3n3c2sc2ccccc23)cn1
IC50 (second compound 0.0316 µM): 148 nM
IC50 (second compound 0.1 µM): 102 nM
IC50 (second compound 0.316 µM): 61.9 nM
IC50 (second compound 1 µM): < 31.6 nM
IC50 (second compound 3.16 µM): < 31.6 nM
IC50 (second compound 10 µM): < 31.6 nM
viability, T/C [1]: 96.1%
viability, T/C [2]: 71.1%
viability, T/C [3]: 9.06%
viability, T/C [4]: 0.26%
viability, T/C [5]: 0.12%
viability, T/C [6]: 0.12%
viability, T/C [7]: 66.5%
viability, T/C [8]: 50.9%
viability, T/C [9]: 9.09%
viability, T/C [10]: 0.28%
viability, T/C [11]: 0.09%
viability, T/C [12]: 0.1%
viability, T/C [13]: 64.5%
viability, T/C [14]: 39.7%
viability, T/C [15]: 8.31%
viability, T/C [16]: 0.44%
viability, T/C [17]: 0.08%
viability, T/C [18]: 0.1%
viability, T/C [19]: 40.2%
viability, T/C [20]: 34.2%
viability, T/C [21]: 8.56%
viability, T/C [22]: 0.11%
viability, T/C [23]: 0.08%
viability, T/C [24]: 0.1%
viability, T/C [25]: 33.3%
viability, T/C [26]: 24.1%
viability, T/C [27]: 0.15%
viability, T/C [28]: 0.1%
viability, T/C [29]: 0.1%
viability, T/C [30]: 0.12%
viability, T/C [31]: 34.2%
viability, T/C [32]: 19.8%
viability, T/C [33]: 0.24%
viability, T/C [34]: 0.14%
viability, T/C [35]: 0.16%
viability, T/C [36]: 0.18%
